Data from article PMC8023571, “Multiple Applications of a Novel Biarsenical Imaging Probe in Fluorescence and PET Imaging of Melanoma” (Bioconjugate Chemistry, 2021).

Legend:
[1] = system: Cys-Cys-Pro-Gly-Cys-Cys (CCPGCC) sequence; conditions: four As-S bonds with CCPGCC; cited from earlier work
From the text: In 1998, Griffin et al. described a system for fluorescent imaging using a biarsenical fluorescein analogue system now widely known as FlAsH.[6] This system relied on a reversible soft Lewis acid–base reaction between As(III) and S(-II) of cysteine. […] Since this sequence is uncommon in natural proteins, it requires installation via genetic alteration of the organism where the protein is expressed; in small peptides, it can be introduced during chemical synthesis. However, as ...

[2] = PET measurement of organ distribution in a nonhuman primate; type: in vivo, cynomolgus monkey; conditions: i.v.; NHP
Procedure: Second, high background affinity to any organ would severely hamper protein imaging in that organ. In order to test if 1 fulfilled these prerequisites, a […] dynamic PET measurement was performed after an intravenous injection of [^11C]CH3-1, with the upper body of a nonhuman primate subject (NHP) in the field of view. […] The high radioactivity in the liver and the low uptake in the brain likely prohibits the use of 1 for pretargeting in these organs. […] Blood samples were taken at multiple time points during the NHP PET measurements for the purpose of analyzing radiolabeled metabolites in plasma.
Figure 3 (a) Summation PET image of NHP showing the distribution of [^11C]CH3-1 from 3 to 60 min after intravenous injection. (b) Time–activity curves showing organ distribution following intravenous injection of [^11C]CH3-1.
Image- and Statistical Analysis
The acquired list mode data was reconstructed into […] (93 min scan = 4x10 s, 4x20 s, 4x60 s, 7x180 s, 11x360 s). The image reconstruction was made with a fully 3-dimensional maximum-likelihood expectation maximization algorithm (MLEM) with 20 iterations, without scatter and attenuation correction. […] The regional uptake values were expressed as standard uptake value (SUV), which normalizes for injected radioactivity and body weight. […]

Row | SMILES | binding constant [1] | background radioactivity in lungs and heart [2]
1 | O=C(O)c1ccccc1-c1c2ccc(=O)c([As]3SCCS3)c-2oc2c([As]3SCCS3)c(O)ccc12 [FlAsH] | high binding constant | 
2 | O=c1cc2oc3c([As]4SCCS4)c(O)ccc3c(-c3ccc(F)cc3)c-2cc1[As]1SCCS1 [compound 1] |  | intermediate background radioactivity
